# Experiments:
# human glucagon receptor = target: T1, human glucagon receptor (Homo sapiens, UniProt P47871); experiment: Glucagon binding inhibitory activity ([125I]-glucagon binding to glucagon receptor membrane protein); settings: for IC50: human glucagon receptor membrane protein, [125I]-glucagon, 90 min room temperature; for inhibition at 10 µM: read-out: inhibitory rate (%) at 10 μM
# T1 construct: made in house; host or cells: FreeStyle CHO cells, transient transfection with pMSRαneo/hGCGR; membrane fraction (35,000 rpm pellet)
# T1 sequence (P47871 26-477): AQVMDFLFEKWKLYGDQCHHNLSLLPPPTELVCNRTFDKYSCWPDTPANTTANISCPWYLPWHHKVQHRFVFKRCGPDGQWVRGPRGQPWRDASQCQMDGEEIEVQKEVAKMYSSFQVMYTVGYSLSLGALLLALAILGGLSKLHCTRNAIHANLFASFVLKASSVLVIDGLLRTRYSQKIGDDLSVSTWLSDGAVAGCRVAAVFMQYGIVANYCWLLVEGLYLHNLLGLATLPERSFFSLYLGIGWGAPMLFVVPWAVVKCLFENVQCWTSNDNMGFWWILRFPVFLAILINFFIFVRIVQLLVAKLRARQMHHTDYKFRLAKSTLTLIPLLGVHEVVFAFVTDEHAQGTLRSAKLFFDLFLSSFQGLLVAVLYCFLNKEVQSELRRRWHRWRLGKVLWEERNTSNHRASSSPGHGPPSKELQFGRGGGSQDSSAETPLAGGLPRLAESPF
# How it was run: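 Receptor source was a membrane fraction of transiently transfected CHO cells bearing human receptor; 90 min room-temperature binding, filtration harvest, scintillation counting.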
# [1] = test system: glucagon-induced blood glucose increase; experiment: Suppressive action test for glucagon-induced blood glucose increase (rat); assay type: in vivo; settings: SD rats male, 10 mg/kg oral, glucagon 15 μg/kg s.c. 60 min later, blood glucose 20 min after glucagon
# Description: Suppressive Action Test for Glucagon-Induced Blood Glucose Increase (Rat)
# Full feeding SD rats (male, 7- to 9-week-old) were fasted, 0.5% methylcellulose suspension containing a test compound (10 mg/kg body weight) (compound administration group, 5 rats per group) or 0.5% methylcellulose suspension (compound non-administration group, 12 rats, per group) was orally administered, and 60 min later, glucagon (15 μg/kg body weight, Novo Nordisk Pharma Ltd.) was subcutaneously administered. At 20 min from the glucagon administration, blood samples were collected from the rat tail vein and the blood glucose was measured using a self-testing glucose kit ACCU-CHEK (Roche Diagnostics K.K.). In addition, as a non-treatment group (5 rats per group), the blood glucose of rat (compound non-treatment group) free of glucagon administration was measured in the same manner as above.
# The difference between the blood glucose of compound non-administration group or compound administration group and the blood glucose of non-treatment group was calculated. The percentage of “the difference between blood glucose of compound administration group and blood glucose of non-treatment group” was obtained as “blood glucose increase rate (% of control)” where “the difference between blood glucose of compound non-administration group and that of non-treatment group” is 100%.
# [2] = test compound 10 μM, 0.4% DMSO = 0%, non-labeled glucagon 1 μM = 100%
Compound,inhibitory rate (%) at 10 μM (human glucagon receptor; [2]) [%],IC50 (human glucagon receptor) [nM],inhibition at 10 µM (human glucagon receptor; [2]) [%],blood glucose increasing rate (% of control) [1]
"Cc1c(C(Nc2ccc(C(=O)N(C)CCC(=O)O)cn2)C2CCCCC2)oc2ccc(F)cc12 (single isomer, unassigned) [Example A53, 3-{[(6-{[cyclohexyl(5-fluoro-3-methyl-1-benzofuran-2-yl)methyl]amino}pyridin-3-yl)carbonyl](methyl)amino}propanoic acid]",,570,83,27.4 % of control
"Cc1c(C(Nc2ccc(C(=O)N(C)CCC(=O)O)cc2)C2CCCCC2)oc2ccc(OC3CCOCC3)cc12 (single isomer, unassigned) [Example A83, 3-[{[4-({cyclohexyl[3-methyl-5-(tetrahydro-2H-pyran-4-yloxy)-1-benzofuran-2-yl]methyl}amino)phenyl]carbonyl}(methyl)amino]propanoic acid]",,84,93,43.0 % of control
"O=C(O)CCNC(=O)c1ccc(NC(c2cc3cc(C(F)(F)F)ccc3s2)C2CCCCC2)cc1 (stereo not shown) [Example A11, 3-({[4-({cyclohexyl[5-(trifluoromethyl)-1-benzothiophen-2-yl]methyl}amino)phenyl]carbonyl}amino)propanoic acid]",,,74,

# Further lines, with some results ahead:
inhibitory rate (%) at 10 μM (human glucagon receptor; [2]) [%],IC50 (human glucagon receptor) [nM],inhibition at 10 µM (human glucagon receptor; [2]) [%],Compound,blood glucose increasing rate (% of control) [1]
86,,,Cc1c(C(Nc2ccc(C(=O)N(C)CCC(=O)O)cc2)C2CCCCC2)oc2ccccc12 (stereo not shown) [Example A41],16.6 % of control
,900,87,"CCC(CC)C(Nc1ccc(C(=O)N(C)CCC(=O)O)cc1)c1oc2ccc(F)cc2c1C (single isomer, unassigned) [Example A73, 3-{[(4-{[2-ethyl-1-(5-fluoro-3-methyl-1-benzofuran-2-yl)butyl]amino}phenyl)carbonyl](methyl)amino}propanoic acid]",24.2 % of control
,,69,"CCCCCCC(Nc1ccc(C(=O)NCCC(=O)O)cc1)c1cc2cc(Cl)ccc2n1-c1cccc(C(F)(F)F)c1 (stereo not shown) [Example A106, 3-[({4-[(1-{5-chloro-1-[3-(trifluoromethyl)phenyl]-1H-indol-2-yl}heptyl)amino]phenyl}carbonyl)amino]propanoic acid]",
